Assay [1] deals with T1, α7-type neuronal nicotinic acetylcholine receptors (Rattus norvegicus, UniProt Q05941).
T1 construct: The brain tissue was homogenized with a Tekmar Polytron; from tissue; host or cells: rat brain membranes (whole brain without cortex and cerebellum)
In words: Inhibition of [^3H]methyllycaconitine (MLA) binding to rat brain membranes.

For assay [2], the target named is T2, α4β2 neuronal nicotinic acetylcholine receptors (Rattus norvegicus, UniProt P09483+P12390).
T2 construct: The brain tissue was homogenized with a Tekmar Polytron; from tissue; host or cells: rat brain membranes (whole brain without cortex and cerebellum)
T2 sequence (P09483 31-630): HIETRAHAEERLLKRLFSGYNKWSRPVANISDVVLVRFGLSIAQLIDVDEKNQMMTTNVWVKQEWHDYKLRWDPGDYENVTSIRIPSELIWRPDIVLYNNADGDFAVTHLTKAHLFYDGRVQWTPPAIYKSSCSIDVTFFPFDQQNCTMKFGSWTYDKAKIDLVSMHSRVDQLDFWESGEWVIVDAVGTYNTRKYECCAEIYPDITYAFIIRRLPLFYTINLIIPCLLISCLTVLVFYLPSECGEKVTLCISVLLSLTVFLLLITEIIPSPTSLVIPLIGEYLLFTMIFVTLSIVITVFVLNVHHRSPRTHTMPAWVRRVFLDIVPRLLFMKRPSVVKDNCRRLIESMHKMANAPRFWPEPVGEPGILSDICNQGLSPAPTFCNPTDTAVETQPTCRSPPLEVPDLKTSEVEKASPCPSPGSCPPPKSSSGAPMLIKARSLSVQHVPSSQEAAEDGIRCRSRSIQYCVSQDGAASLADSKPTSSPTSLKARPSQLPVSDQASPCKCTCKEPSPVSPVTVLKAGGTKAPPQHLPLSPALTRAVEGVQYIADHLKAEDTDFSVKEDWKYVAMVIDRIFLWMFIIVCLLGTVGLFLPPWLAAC
T2 sequence (P12390 25-500): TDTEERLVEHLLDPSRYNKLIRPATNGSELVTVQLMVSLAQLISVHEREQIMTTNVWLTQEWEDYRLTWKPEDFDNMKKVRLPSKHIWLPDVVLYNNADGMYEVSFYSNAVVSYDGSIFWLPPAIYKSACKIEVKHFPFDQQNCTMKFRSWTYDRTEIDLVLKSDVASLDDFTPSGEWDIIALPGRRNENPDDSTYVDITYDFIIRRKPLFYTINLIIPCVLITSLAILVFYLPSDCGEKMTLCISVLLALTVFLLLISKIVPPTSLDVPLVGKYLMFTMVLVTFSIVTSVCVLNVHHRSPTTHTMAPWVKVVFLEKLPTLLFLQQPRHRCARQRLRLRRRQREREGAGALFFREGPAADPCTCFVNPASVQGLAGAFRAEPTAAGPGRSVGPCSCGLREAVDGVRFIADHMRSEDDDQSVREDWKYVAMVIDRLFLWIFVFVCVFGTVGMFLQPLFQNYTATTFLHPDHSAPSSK
In words: Inhibition of [^3H]nicotine (NIC) binding to rat brain membranes. The settings on record: % inhibition at 100 nM analog; 3 nM [^3H]NIC; nonspecific 10 μM cytisine; 3-4 independent experiments. The procedure:
(§1) Rat brain was dissected into the whole brain tissue without cortex and cerebellum and was frozen in liquid nitrogen and stored at −70° C. until use. The brain tissue was homogenized with a Tekmar Polytron (setting 40) in 20 volumes of ice-cold hypotonic buffer (2 mM HEPES, 14.4 mM NaCl, 0.15 mM KCl, 0.2 mM CaCl2 and […], pH=7.5). The homogenate was centrifuged at 25,000×g for 17 minutes at 4° C. The pellet was resuspended in 20 volumes of the same buffer, and incubated for 10 min at 37° C. The resuspension was cooled to 4° C. and then centrifuged at the above parameters. The pellet was resuspended by sonicaton and centrifuged using the same conditions. The final pellet was stored at −20° C. under 10 ml of the incubation buffer and was suspended just before incubation with radioligand.
(§2) The binding of [^3H]NIC and [^3H]MLA to probe α4β2 and α7-type neuronal nicotinic acetylcholine receptors, respectively, was determined using [^3H]NIC (67 Ci/mmol) and [^3H]MLA (60 Ci/mmol), purchased from Perkin Elmer Life Sciences, Boston, Mass., U.S.A. and American Radiolabel Chemicals, Inc., St. Louis, Mo., U.S.A. Binding was performed in duplicate, in a final volume of 250 μl of the incubation medium, containing 20 mM HEPES, 144 mM NaCl, 1.5 mM KCl, 2 mM CaCl2, and 1 mM MgSO4, pH=7.5. Reaction was initiated by the addition of 100 μL of membrane suspension to the samples containing a desired concentration of test compounds and 3 nM [^3H]NIC or 3 nM [^3H]MLA (final concentrations) and incubated for 60 min at room temperature. Total binding was measured in the absence of unlabelled ligand and nonspecific binding was determined in the presence of 10 μM cytisine, for [^3H]NIC binding, and 10 μM nicotine for [^3H]MLA. The binding reaction was terminated by dilution of samples with 3 mL of ice-cold incubation buffer followed by immediate filtration through Unifilter-96 GFB-filter plates presoaked in 0.5% polyethylenimine using a Filtermate Harvester (Perkin Elmer, Shelton, Conn., U.S.A.). Filters were rinsed five times with 350 μL of ice-cold buffer, and then filter plates were dried at 48° C. for 60 min, bottom sealed and each well filled with 40 μL of Packard Microscint-20 cocktail. After 60 min of gentle shaking, the filter plates were top sealed and radioactivity measured using a Packard TopCount NXT scintillation counter. CPMs were processed through a Packard Windows NT operating system. Protein was measured using the Bradford dye-binding procedure with bovine serum albumin as the standard.
(§3) The ability of a probe concentration of 100 nM of the tetrakis-quaternary ammonium salts to inhibit specific binding was evaluated.
(§4) ^aData are % inhibition at 100 nM concentration of analog for 3-4 independent experiments. Specific binding in the [^3H]NIC binding assay is calculated as the difference between the total binding of 3 nM [^3H]NIC and nonspecific binding in the presence of 10 μM cytisine. Specific binding for the [^3H]MLA binding assay is calculated as the difference between the total binding of 3 nM [^3H]MLA to the receptors alone and its nonspecific binding in the presence of 10 μM nicotine. Analog-induced inhibition of nicotine-evoked [^3H]DA release is calculated as a percent of that in the absence of analog.

The target of assay [3] is T1, α7-type neuronal nicotinic acetylcholine receptors. Nature of the assay: Inhibition of [^3H]methyllycaconitine (MLA) binding to rat brain membranes. The settings on record: % inhibition at 100 nM analog; 3 nM [^3H]MLA; nonspecific 10 μM nicotine; 3-4 independent experiments. The procedure: as §1, §2, §3, §4
Another assay has as its system rat striatal slices. Nature of the assay: Nicotine-evoked [^3H]dopamine release (overflow) from superfused rat striatal slices. The format is cell-based. The settings on record: for inhibition at 0.1 µM: % inhibition at 100 nM analog, 10 μM S(-)nicotine, rat striatal slices, read-out: Inhibition of Nicotine-evoked [^3H]DA release. The procedure:
Rat striatal slices (500 μm thickness, 6 mg wet weight) were incubated for 30 minutes in Krebs buffer (118 mM NaCl, 4.7 mM KCl, 1.2 mM MgCl2, 1.0 mM NaH2PO4, 1.3 mM CaCl2, 11.1 mM glucose, 25 mM NaHCO3, 0.11 mM L-ascorbic acid, and 0.004 mM disodium EDTA; pH 7.4, and saturated with 95% O2/5% CO2) in a metabolic shaker at 34° C. Slices were rinsed with 15 mL of fresh buffer and incubated for an additional 30 minutes in fresh buffer containing 0.1 μM [^3H]dopamine (DA; 6 slices/3 mL). Subsequently, slices were rinsed with 15 mL of fresh buffer and each slice transferred to a superfusion chamber. Slices were superfused (0.6 mL/min) for 60 minutes with Krebs buffer containing nomifensine (10 μM) and pargyline (10 μM) and maintained at 34° C., pH 7.4, with continual aeration (95% O2/5% CO2). Two 4-minute samples (2.4 mL each) were collected to determine basal outflow of [^3H]DA. Slices were superfused for 36 min following addition of the analogs to the superfusion buffer after the collection of the second sample and nine 4-minute samples were collected. For initial probe assays, the concentration of analog was 100 nM. For concentration-response studies, the concentration of analog varied from 1 nM to 10 μM, and the effect of each concentration was determined using striatal slices obtained from an individual animal (repeated measures design). Subsequently, S(−)nicotine (10 μM) was added to the buffer and nine additional 4-minute samples were collected. At the end of the experiment, each slice was solubilized and the [^3H] content of the tissue determined.
Radioactivity in the superfusate and tissue samples was determined by liquid scintillation spectroscopy. Fractional release for tritium collected in each sample was divided by the total tritium present in the tissue at the time of sample collection and was expressed as a percentage of total tritium. Basal [^3H]outflow was calculated from the average of the tritium collected in the two […] samples just before addition of the analog. The sum of the increase in collected tritium resulting from either exposure to the test compound or exposure to S(−)nicotine in the absence and presence of the test compound equaled total [^3H]overflow. [^3H]Overflow was calculated by subtracting the [^3H]outflow during an equivalent period of prestimulation from the values in samples collected during and after drug exposure. Inasmuch as the radiolabelled compounds were not separated and identified, the tritium collected in superfusate is referred to as either [^3H]outflow or [^3H]overflow, rather than as [^3H]DA. [^3H]Overflow primarily represents [^3H]DA in the presence of nomifensine and pargyline in the superfusion buffer. […]
Analogs were also evaluated for their ability to inhibit NIC evoked [^3H]DA release. Antagonist activity was evaluated by comparing the NIC-evoked [^3H]overflow in the absence and presence of the analogs (see Table 1). […] Data are expressed as M±SEM. Control represents absence of compound. N=4/analog, *p<0.05
as §4
^bIC50 from full concentration response assay; data from 4-5 independent experiments, each performed in duplicate.

T1 sequence (Q05941 23-502): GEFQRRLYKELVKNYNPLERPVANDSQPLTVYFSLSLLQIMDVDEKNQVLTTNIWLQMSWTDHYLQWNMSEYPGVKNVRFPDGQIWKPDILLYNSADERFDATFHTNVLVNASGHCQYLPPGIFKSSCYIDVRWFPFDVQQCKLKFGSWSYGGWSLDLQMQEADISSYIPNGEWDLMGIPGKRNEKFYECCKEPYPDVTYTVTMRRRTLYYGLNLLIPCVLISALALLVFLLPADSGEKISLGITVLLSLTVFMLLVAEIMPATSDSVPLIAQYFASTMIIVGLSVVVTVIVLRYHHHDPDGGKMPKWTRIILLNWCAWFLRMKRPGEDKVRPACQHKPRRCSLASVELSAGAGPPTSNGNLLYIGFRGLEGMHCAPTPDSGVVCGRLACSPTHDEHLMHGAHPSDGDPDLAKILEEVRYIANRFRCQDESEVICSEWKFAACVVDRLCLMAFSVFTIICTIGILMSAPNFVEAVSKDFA

Usually Ki stands for a dissociation constant, usually derived from enzyme kinetics or from competition with a known ligand. For the compound α-bungarotoxin, the Ki in assay [1] was found to be 0.0286 ± 0.0054 µM.

One may read the inhibition as how much of the control response was suppressed. For the compound `C(#Cc1cc(C#CCCC[n+]2ccc3c(c2)CCCC3)c(C#CCCC[n+]2ccc3c(c2)CCCC3)cc1C#CCCC[n+]1ccc2c(c1)CCCC2)CCC[n+]1ccc2c(c1)CCCC2.[Br-].[Br-].[Br-].[Br-]`, the “Inhibition of [^3H]Nicotine binding” value in assay [2] was 9.7 ± 9.7%. In assay [3], the “Inhibition of [^3H]MLA binding” value was found to be 17 ± 8.9%. Further, in the assay on rat striatal slices, the inhibition at 0.1 µM came to 24 ± 14%.

For `Cc1cc[n+](CCCCCc2cc(CCCCC[n+]3ccc(C)c(C)c3)c(CCCCC[n+]3ccc(C)c(C)c3)cc2CCCCC[n+]2ccc(C)c(C)c2)cc1C.[Br-].[Br-].[Br-].[Br-]`, the “Inhibition of [^3H]Nicotine binding” value in assay [2] turned out to be 0.5 ± 0.5%. In addition, the “Inhibition of [^3H]MLA binding” value in assay [3] was determined as 18 ± 10%. In addition, in the assay on rat striatal slices, the inhibition at 0.1 µM was 36 ± 11%.

For the compound `C(#Cc1cc(C#CCCC[n+]2cccc(-c3ccccc3)c2)c(C#CCCC[n+]2cccc(-c3ccccc3)c2)cc1C#CCCC[n+]1cccc(-c2ccccc2)c1)CCC[n+]1cccc(-c2ccccc2)c1.[Br-].[Br-].[Br-].[Br-]`, in assay [2], the “Inhibition of [^3H]Nicotine binding” value is listed as 0.3 ± 0.3%. The “Inhibition of [^3H]MLA binding” value in assay [3] is 53 ± 0.8%. In addition, the inhibition at 0.1 µM in the assay on rat striatal slices turned out to be 37 ± 15%.

In the case of `OCCCc1ccc[n+](CCCC#Cc2cc(C#CCCC[n+]3cccc(CCCO)c3)c(C#CCCC[n+]3cccc(CCCO)c3)cc2C#CCCC[n+]2cccc(CCCO)c2)c1.[Br-].[Br-].[Br-].[Br-]`, the “Inhibition of [^3H]Nicotine binding” value in assay [2] turned out to be 0 ± 0%. Besides, the “Inhibition of [^3H]MLA binding” value in assay [3] was found to be 5.7 ± 5.7%. Also, in the assay on rat striatal slices, the inhibition at 0.1 µM amounted to 41 ± 15%.

One may read the IC50 as the concentration that gives 50% inhibition. For the compound `OCCCc1ccc[n+](CCCCCc2cc(CCCCC[n+]3cccc(CCCO)c3)c(CCCCC[n+]3cccc(CCCO)c3)cc2CCCCC[n+]2cccc(CCCO)c2)c1.[Br-].[Br-].[Br-].[Br-]`, the “Inhibition of [^3H]Nicotine binding” value in assay [2] turned out to be 9.6 ± 5.2%. For the same compound, the “Inhibition of [^3H]MLA binding” value in assay [3] was 20 ± 13%. Moreover, the inhibition at 0.1 µM in the assay on rat striatal slices came to 64 ± 15%. The IC50 in the assay on rat striatal slices (Rattus norvegicus, full concentration response assay, 4-5 independent experiments in duplicate, 10 μM nicotine, read-out: IC50, inhibition of nicotine-evoked [^3H]DA release (converted)) is 0.00338 µM.

The values above are taken from US8629163B2, “Tetrakis-quaternary ammonium salts and methods for modulating neuronal nicotinic acteylcholine receptors” (University of Kentucky Research Foundation, priority 2007, dated 2014).
